Measured values: patent publication US20260083865A1, “PROSTATE SPECIFIC MEMBRANE ANTIGEN (PSMA) LIGANDS AND USE THEREOF” (priority 2022, published 2026)
Read-outs that look alike come from different tables or passages of the source. One block for each compound: values may come before it. Numbered stars: 1 amine (or outer) side, 2 acyl side, 3 side chain; on linkers, the order of the positions; unused ones are H or OH. Bridge positions count the residues as written; N and C are the ends. Square brackets hold non-standard residues; d marks the D form. Peptide text beside a SMILES is read from it. * marks the point of attachment. Acetyl(1-DOTA-4-piperidyl) = O=C(O)CN1CCN(CC(=O)O)CCN(CC(=O)N2CCC(CC(=O)*)CC2)CCN(CC(=O)O)CC1; DOTA = O=C(O)CN1CCN(CC(=O)O)CCN(CC(=O)*)CCN(CC(=O)O)CC1; Phe(4-Cl) = N[C@@H](Cc1ccc(Cl)cc1)C(=O)O; Phe(4-F) = N[C@@H](Cc1ccc(F)cc1)C(=O)O; Pro(4,4-F2) = O=C(O)[C@@H]1CC(F)(F)CN1; X1 = O=C(CC1CCN([*:1])CC1)[*:2]; Tle = CC(C)(C)[C@H](N)C(=O)O; Propanoyl(3-OH) = O=C(CCO)*; Nle = CCCC[C@H](N)C(=O)O; Aib = CC(C)(N)C(=O)O

Columns and labels:
[1] = target: T1, Fc-fusion protein of human PSMA (hPSMA-Fc) (Homo sapiens, UniProt Q04609); assay: Surface plasmon resonance assay (Biacore T200, single cycle kinetic); format: binding
T1 construct: purchased Acro Biosystems PSA-H5264
How it was run: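 KD, expressed as pKD, came from 1:1 Langmuir fits of reference- and buffer-blank-subtracted SPR data. The runs were single-cycle kinetics at 25° C in HBST/0.1% DMSO over human PSMA-Fc, captured to ~1000 RU on a peptide-coated CM5 surface and regenerated with 10 mM glycine pH 1.5.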

[2] = target: T2, PSMA-expressing C4-2 cells (Homo sapiens, UniProt Q04609); assay: FACS binding assay (competition with 50 nM PSM-0183)
T2 construct: PSMA-expressing C4-2 cells (ATCC, Cat. No. CRL-3314) were cultured in RPMI-1640; host or cells: C4-2 cells
How it was run: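 Competition format: fluorescent tracer PSM-0183 (50 nM) displaced from PSMA on C4-2 cells by a test compound titration over 1 h at 4 °C. Bound tracer was quantified as flow-cytometric AF488 median fluorescence after washing. Four-parameter logistic fits of MFI data gave IC50 and pIC50.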

[3] = PSMA SPR assay, hPSMA-Fc, 25° C., pKD category, read-out: pKD CAT (converted)
[4] = FACS binding, PSMA-expressing C4-2 cells, pIC50 category, read-out: pIC50 [C4-2] CAT (converted)
[5] = pKD category for PSMA SPR activity assay, hPSMA-Fc, 25° C., read-out: pKD CAT (converted)
[6] = pIC50 category of FACS binding, C4-2 cells, read-out: pIC50 [C4-2] CAT (converted)
[7] = SPR, hPSMA-Fc, single cycle kinetic, 25° C., category, read-out: pKD CAT (converted)
[8] = FACS binding, C4-2 cells, competition with 50 nM PSM-0183, category, read-out: pIC50 [C4-2] CAT (converted)

T2 sequence (Q04609 whole entry): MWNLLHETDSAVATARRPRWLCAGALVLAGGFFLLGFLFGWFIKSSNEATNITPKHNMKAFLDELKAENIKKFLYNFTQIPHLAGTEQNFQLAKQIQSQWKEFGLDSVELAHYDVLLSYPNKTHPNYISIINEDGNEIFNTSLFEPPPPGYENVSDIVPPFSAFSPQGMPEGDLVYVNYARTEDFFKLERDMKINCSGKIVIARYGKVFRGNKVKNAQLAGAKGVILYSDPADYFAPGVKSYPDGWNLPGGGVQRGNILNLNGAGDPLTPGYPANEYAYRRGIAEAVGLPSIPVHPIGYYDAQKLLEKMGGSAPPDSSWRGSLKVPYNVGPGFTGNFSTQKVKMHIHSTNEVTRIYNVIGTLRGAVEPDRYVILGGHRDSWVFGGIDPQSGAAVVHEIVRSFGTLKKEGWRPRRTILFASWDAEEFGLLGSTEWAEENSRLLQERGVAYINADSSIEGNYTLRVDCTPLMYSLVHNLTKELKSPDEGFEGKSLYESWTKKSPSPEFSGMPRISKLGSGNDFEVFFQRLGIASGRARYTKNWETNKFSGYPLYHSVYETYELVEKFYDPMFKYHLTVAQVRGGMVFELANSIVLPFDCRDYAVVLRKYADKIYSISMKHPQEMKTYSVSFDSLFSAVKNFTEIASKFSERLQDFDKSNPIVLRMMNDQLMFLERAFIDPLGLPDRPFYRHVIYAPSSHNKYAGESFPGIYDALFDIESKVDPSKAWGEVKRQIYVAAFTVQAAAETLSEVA
T1 sequence (Q04609 44-750 limits assumed): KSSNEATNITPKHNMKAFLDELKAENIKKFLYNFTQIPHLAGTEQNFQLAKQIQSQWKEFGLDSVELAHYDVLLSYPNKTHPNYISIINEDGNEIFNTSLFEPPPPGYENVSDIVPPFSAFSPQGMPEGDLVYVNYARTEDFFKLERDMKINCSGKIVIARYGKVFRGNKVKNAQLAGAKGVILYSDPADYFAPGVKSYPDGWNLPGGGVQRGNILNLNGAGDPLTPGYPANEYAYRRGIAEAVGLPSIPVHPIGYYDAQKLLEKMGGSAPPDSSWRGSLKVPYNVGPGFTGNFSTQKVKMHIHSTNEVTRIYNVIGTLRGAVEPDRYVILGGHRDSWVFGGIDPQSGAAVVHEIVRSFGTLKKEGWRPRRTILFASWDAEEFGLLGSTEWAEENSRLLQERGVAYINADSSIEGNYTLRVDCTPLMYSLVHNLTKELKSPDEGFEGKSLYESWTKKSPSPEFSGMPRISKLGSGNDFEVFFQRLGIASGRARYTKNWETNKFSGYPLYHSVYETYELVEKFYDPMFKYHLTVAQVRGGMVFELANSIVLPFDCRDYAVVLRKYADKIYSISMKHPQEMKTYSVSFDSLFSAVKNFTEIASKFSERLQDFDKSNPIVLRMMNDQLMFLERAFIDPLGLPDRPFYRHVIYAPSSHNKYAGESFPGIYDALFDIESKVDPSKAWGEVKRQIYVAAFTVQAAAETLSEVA

SMILES: C[C@@H](O)[C@H](NC(=O)[C@@H](NC(=O)[C@@H]1CSSC[C@H](NC(=O)[C@H](Cc2ccc(Cl)cc2)NC(=O)C(C)(C)NC(=O)CCO)C(=O)N[C@@H](CCCCN)C(=O)N[C@@H](CCCNC(=N)N)C(=O)NC(C)(C)C(=O)N[C@@H](CC(N)=O)C(=O)N1)C(C)(C)C)C(=O)N1CCC(CC(=O)N[C@H](CCCCNC(=O)CN2CCN(CC(=O)O)CCN(CC(=O)O)CCN(CC(=O)O)CC2)C(N)=O)CC1 [PSM-0509, HPA-Aib-Pcf-[Cys-Lys-Arg-Aib-Asn-Cys]-Tle-Thr-Cmp-lys(DOTA)-NH2] ({Propanoyl(3-OH)}-[Aib][Phe(4-Cl)]CKR[Aib]NC[Tle]T[X1][dK](DOTA)-NH2; disulfide 3-8)
Kd [1, 5]: < 12.6 nM
IC50 [2, 6]: < 200 nM

SMILES: CC(=O)NCCCC[C@@H]1NC(=O)[C@@H](NC(=O)[C@H](Cc2ccc(Cl)cc2)NC(=O)C(C)(C)NC(=O)[C@@H](NC(=O)CC2CCN(C(=O)CN3CCN(CC(=O)O)CCN(CC(=O)O)CCN(CC(=O)O)CC3)CC2)[C@@H](C)O)CSSC[C@@H](C(=O)N[C@H](C(=O)N[C@H](C(N)=O)[C@@H](C)O)C(C)(C)C)NC(=O)[C@H](CC(N)=O)NC(=O)C(C)(C)NC(=O)[C@H](CCCNC(=N)N)NC1=O [PSM-0466, DOTA-Cmp-Thr-Aib-Pcf-[Cys-Lys(Ac)-Arg-Aib-Asn-Cys]-Tle-Thr-NH2] ({DOTA}-[X1]T[Aib][Phe(4-Cl)]CK(Ac)R[Aib]NC[Tle]T-NH2; disulfide 5-10)
Kd [1, 5]: < 12.6 nM
IC50 [2, 6]: 200 to 1260 nM

SMILES: CC(=O)N[C@H](C(=O)NC(C)(C)C(=O)N[C@@H](Cc1ccc(F)cc1)C(=O)N[C@H]1CSSC[C@@H](C(=O)N[C@H](C(=O)N[C@H](C(N)=O)[C@@H](C)O)C(C)(C)C)NC(=O)[C@H](CC(N)=O)NC(=O)C(C)(C)NC(=O)[C@H](CCCNC(=N)N)NC(=O)[C@H](CCCCN)NC1=O)[C@@H](C)O [PSM-0294, Ac-Thr-Aib-Pff-[Cys-Lys-Arg-Aib-Asn-Cys]-Tle-Thr-NH2] (Ac-T[Aib][Phe(4-F)]CKR[Aib]NC[Tle]T-NH2; disulfide 4-9)
Kd [1, 3]: < 12.6 nM
IC50 [2, 4]: < 200 nM

SMILES: CC(=O)N[C@H](C(=O)NC(C)(C)C(=O)N[C@@H](Cc1ccccc1)C(=O)N[C@H]1CSSC[C@@H](C(=O)N[C@H](C(=O)N[C@H](C(=O)N[C@@H](CC(=O)O)C(N)=O)[C@@H](C)O)C(C)(C)C)NC(=O)[C@H](CC(N)=O)NC(=O)[C@@H]2CC(F)(F)CN2C(=O)[C@H](CCCNC(=N)N)NC(=O)[C@H](CCCCN)NC1=O)[C@@H](C)O [PSM-0217, Ac-Thr-Aib-Phe-[Cys-Lys-Arg-Dfp-Asn-Cys]-Tle-Thr-Asp-NH2] (Ac-T[Aib]FCKR[Pro(4,4-F2)]NC[Tle]TD-NH2; disulfide 4-9)
Kd [1]: 12.6 to 126 nM
IC50 [2]: < 200 nM

SMILES: CCCC[C@H](NC(=O)[C@@H]1CSSC[C@H](NC(=O)[C@H](Cc2ccccc2)NC(=O)[C@H](C)NC(=O)[C@@H](NC(C)=O)[C@@H](C)O)C(=O)N[C@@H](CCCCN)C(=O)N[C@@H](CCCNC(=N)N)C(=O)N[C@@H](CCC(=O)O)C(=O)N[C@@H](CC(N)=O)C(=O)N1)C(=O)N[C@@H](C(=O)N[C@H](CC(=O)O)C(N)=O)[C@H](C)O [PSM-0197, Ac-Thr-Ala-Phe-[Cys-Lys-Arg-Glu-Asn-Cys]-Nle-Thr-Asp-NH2] (Ac-TAFCKRENC[Nle][dT][dD]-NH2; disulfide 4-9)
Kd [1, 7]: 12.6 to 126 nM
IC50 [2, 8]: < 200 nM

The next lines start with the values.

Kd [1, 3]: < 12.6 nM
IC50 [2, 4]: < 200 nM
SMILES: CC(=O)N[C@H](C(=O)NC(C)(C)C(=O)N[C@@H](Cc1ccccc1)C(=O)N[C@H]1CSSC[C@@H](C(=O)N[C@H](C(=O)N[C@H](C(=O)N[C@H](CCCCNC(=O)CN2CCN(CC(=O)O)CCN(CC(=O)O)CCN(CC(=O)O)CC2)C(N)=O)[C@@H](C)O)C(C)(C)C)NC(=O)[C@H](CC(N)=O)NC(=O)C(C)(C)NC(=O)[C@H](CCCNC(=N)N)NC(=O)[C@H](CCCCN)NC1=O)[C@@H](C)O [PSM-0288, Ac-Thr-Aib-Phe-[Cys-Lys-Arg-Aib-Asn-Cys]-Tle-Thr-lys(DOTA)-NH2] (Ac-T[Aib]FCKR[Aib]NC[Tle]T[dK](DOTA)-NH2; disulfide 4-9)

Kd [1, 7]: < 12.6 nM
IC50 [2, 8]: < 200 nM
SMILES: CC(=O)N[C@H](C(=O)NC(C)(C)C(=O)N[C@@H](Cc1ccc(Cl)cc1)C(=O)N[C@H]1CSSC[C@@H](C(=O)N[C@H](C(=O)N[C@H](C(=O)N[C@H](CCCCNC(=O)CC2CCN(C(=O)CN3CCN(CC(=O)O)CCN(CC(=O)O)CCN(CC(=O)O)CC3)CC2)C(N)=O)[C@@H](C)O)C(C)(C)C)NC(=O)[C@H](CC(N)=O)NC(=O)C(C)(C)NC(=O)[C@H](CCCNC(=N)N)NC(=O)[C@H](CCCCN)NC1=O)[C@@H](C)O [PSM-0190, Ac-Thr-Aib-Pcf-[Cys-Lys-Arg-Aib-Asn-Cys]-Tle-Thr-lys(DOTA-Cmp)-NH2] (Ac-T[Aib][Phe(4-Cl)]CKR[Aib]NC[Tle]T[dK](Acetyl(1-DOTA-4-piperidyl))-NH2; disulfide 4-9)
